Measured values reported in patent US20180120298A1, “HEPATOCYTE CULTURE DEVICE CAPABLE OF ENHANCING ACCUMULATION AND EXCRETION OF HEPATIC METABOLITE IN AND INTO BILE CANALICULUS-LIKE STRUCTURE, AND METHOD FOR EVALUATING CANDIDATE COMPOUND SENSITIVE TO EXCRETION INTO BILE OR BLOOD AND HEPATIC METABOLITE OF SAID CANDIDATE COMPOUND USING SAID HEPATOCYTE …” (National Agriculture and Food Reserach Organization, priority 2015, published 2018).
Like-named read-outs stand apart in the source and are kept apart here.

What was measured:
HepG2 cells [1] = test system: HepG2 cells
Description: (§1) HepG2 cells (purchased from RIKEN BioResource Center, RCB1648, Lot.004) suspended in 0.5 mL DMEM culture medium containing 10% FBS, 20 mM HEPES, 100 units/mL penicillin, and 100 μg/mL streptomycin were seeded at 5×10^4 cells/cm^2 and cultured for 2 days in a hydrogel membrane chamber (ad-MED Vitrigel (registered trademark) manufactured by KANTO KAGAKU) to which a detachable silicone-coated PET film is attached. Thereafter, the film on a bottom surface of the hydrogel membrane chamber was detached, the chamber was mounted in a well of a 12-well plate, and culture was carried out for 1 day in a state where the bottom surface is in contact with air (refer to FIG. 2). The 0.5 mL culture medium was exchanged daily after seeding.
(§2) [1] After removing the culture medium of the hydrogel membrane chamber containing the activated HepG2 cells, 0.5 mL of the culture medium containing 250 vg/mL Fluorescein diacetate (FD) was added, and then culture was carried out at 37° C. for 1 hour in a CO2 incubator (refer to FIG. 4 and Observation A of FIG. 5).
(§3) [2] After removing the culture medium containing the FD remaining in the chamber, washing was performed twice with 0.5 mL of Hank's Balanced Salt Solution (Hank's balanced salt solution: HBSS), 0.5 mL of the culture medium was added to the chamber, and then culture was carried out at 37° C. for 1 hour in a CO2 incubator (refer to Observation B of FIG. 5).
(§4) [1] HepG2 cells were seeded to prepare 12 sets of activated hydrogel membrane chambers. For 6 sets, FD was added to the culture medium and cultured by the same procedure as in [1] to [2] of Example 1.
(§5) [2] Subsequently, after removing the culture medium remaining in the chamber, 0.5 mL of the culture medium was newly added to the chamber. Subsequently, each of three sets was cultured at 37° C. for 1 hour in a CO2 incubator under the following four conditions (refer to FIG. 6).
(§6) i) A set in which HepG2 cells were co-cultured with TFK-1 cells (FD added) ii) A set in which HepG2 cells were co-cultured with TFK-1 cells (FD not added) iii) A set in which HepG2 cells were homo-cultured in a dish containing only a culture medium (FD added) iv) A set in which HepG2 cells were homo-cultured in a dish containing only a culture medium (FD not added)
(§7) [3] The culture medium in the chamber and the dish of i) to iv) was recovered and the fluorescence intensities were measured.
(§8) [2] With respect to the 36 sets of hydrogel membrane chambers in which the cells were seeded and cultured in [1], the culture medium remaining in the chamber was removed, and then 0.5 mL of the culture medium was newly added to the chamber. Subsequently, each of three sets was cultured at 37° C. in a CO2 incubator with culture time of 3 minutes, 30 minutes, and 60 minutes (for each 12 sets) under the following four conditions i) to iv) the same as those of Example 2.
[3] The culture media in the dishes and in the chambers of i) to iv) were recovered 3 minutes, 30 minutes, and 60 minutes after the start of culture, and the fluorescence intensities were measured. Measurements were made three times respectively, and average values are shown in Table 3 (culture time 3 minutes), Table 4 (culture time 30 minutes), and Table 5 (culture time 60 minutes). In FIG. 7, the term “Co-culture” means the set in which HepG2 cells were co-cultured with TFK-1 cells, and the term “Homo-culture” means the set in which HepG2 cells were homo-cultured in the dish containing the culture medium.
as §8, with “to the 48 sets of” for “to the 36 sets of”, “30 minutes, 60 minutes, and 180” for “30 minutes, and 60”, “minutes, and 180 minutes (for” for “minutes, and 60 minutes (for”

[2] = test system: HepG2 cells co-cultured with TFK-1 cells; experiment: Fluorescein excretion into chamber and dish, activated HepG2 cells in hydrogel membrane chamber co-cultured with TFK-1 cells; assay type: in vitro ADME, human
Description: as §1, §2, §3
[3] Subsequently, after removing the culture medium remaining in the chamber, 0.5 mL of the culture medium was newly added to the chamber. Furthermore, TFK-1 cells (purchased from RIKEN BioResource Center, RCB2537, Lot.002) suspended in 2.0 mL of RPMI 1640 culture medium containing 10% FBS, 100 units/mL penicillin, and 100 μg/mL streptomycin were seeded at 7×10^4 cells/cm^2 in a dish having a diameter of 35 mm and cultured for 3 days, and therefore, monolayered cells were prepared in advance. After removing the culture medium in the dish, 0.5 mL of the culture medium for HepG2 cells was added thereto. The chamber was mounted on the monolayer of TFK-1 cells in the dish having a diameter of 35 mm, and then co-culture was carried out at 37° C. for 1 hour in a CO2 incubator (refer to Observation C of FIG. 5).
[4] The fluorescence intensities of Fluorescein in the culture medium in the chamber and in the dish were measured. In Table 1, FD (−) is a value measured as a background value using a chamber having HepG2 cells cultured without adding FD.
as §4, §5, §6, §7
[2] […]

[3] = test system: HepG2 cells co-cultured with Normal Human Dermal Fibroblasts (NHDFs); experiment: Fluorescein excretion into chamber and dish, activated HepG2 cells co-cultured with NHDFs; assay type: in vitro ADME; details: Example 6; culture time 60 minutes
Description: [1] First, HepG2 cells were seeded to prepare 18 sets of activated hydrogel membrane chambers.

[4] = test system: HepG2 cells co-cultured with TFK-1 cells; experiment: Fluorescence microscope observation of Fluorescein in cytoplasm and bile canaliculus-like structure, co-culture with TFK-1 cells; assay type: in vitro ADME, human
Description: [3] […] After removing the culture medium in the dish, 0.5 mL of the culture medium for HepG2 cells was added thereto.
(§9) [1] First, HepG2 cells were seeded to prepare 2 sets of activated hydrogel membrane chambers.

HepG2 cells [5] = experiment: Fluorescence microscope observation of Fluorescein in cytoplasm and bile canaliculus-like structure, homo-culture; assay type: in vitro ADME
Description: as §9

[6] = test system: HepG2 cells co-cultured with TFK-1 cells; experiment: Fluorescein excretion into chamber and dish, activated HepG2 cells in hydrogel membrane chamber co-cultured with TFK-1 cells; assay type: in vitro ADME, human; details: Example 4

SMILES: CC(=O)Oc1ccc2c(c1)Oc1cc(OC(C)=O)ccc1C21OC(=O)c2ccccc21 [FD, Fluorescein diacetate]
- Average value of set, in chamber (HepG2 cells [1]; human, 3 min, 250 vg/mL): 507
- FD(+)-FD(−) in chamber as percentage of total excreted into chamber and dish (HepG2 cells [1]; human, 30 min, 250 vg/mL): (50%)
- FD(+)-FD(−) in dish as percentage of total excreted into chamber and dish (HepG2 cells [1]; human, 30 min, 250 vg/mL): (50%)
- Average value of set, in chamber (HepG2 cells [1]; human, 1 h, 250 vg/mL): 1145
- Average value of set, in dish (HepG2 cells [1]; human, 1 h, 250 vg/mL): 645
- FD(+)-FD(−) in chamber as percentage of total excreted into chamber and dish (HepG2 cells [1]; human, 1 h, 250 vg/mL): (90%)
- FD(+)-FD(−) in dish as percentage of total excreted into chamber and dish (HepG2 cells [1]; human, 1 h, 250 vg/mL): (10%)
- FD(+)-FD(−), in chamber (HepG2 cells [1]; human, 1 h, 250 vg/mL): 549
- FD(+)-FD(−), in dish (HepG2 cells [1]; human, 1 h, 250 vg/mL): 60
- Average value of set, in chamber (HepG2 cells [1]; human, 180 min, 250 vg/mL): 579
- Average value of set, in dish (HepG2 cells [1]; human, 180 min, 250 vg/mL): 515
- FD(+)-FD(−) in chamber as percentage of total excreted into chamber and dish (HepG2 cells [1]; human, 180 min, 250 vg/mL): (71%)
- FD(+)-FD(−) in dish as percentage of total excreted into chamber and dish (HepG2 cells [1]; human, 180 min, 250 vg/mL): (29%)
- FD(+)-FD(−), in chamber (HepG2 cells [1]; human, 180 min, 250 vg/mL): 88
- FD(+)-FD(−), in dish (HepG2 cells [1]; human, 180 min, 250 vg/mL): 36

SMILES: O=C1OC2(c3ccc(O)cc3Oc3cc(O)ccc32)c2ccccc21 [Fluorescein]
- amount of Fluorescein excreted into the dish larger in co-culture with TFK-1 cells than in homo-culture (rate of excretion to the lower side) ([2]; Example 2, 1 hour): 4%
- increase of the total amount of excreted Fluorescein, co-culture with TFK-1 cells vs homo-culture ([2]; Example 2, 1 hour): about 26%
- total of the fluorescence intensities of Fluorescein excreted into the chamber and into the dish ([2]; Example 2, co-cultured with TFK-1 cells, 1 hour): 770
- rate of the fluorescence intensities of Fluorescein excreted into the dish (lower side) over time ([2]; Example 3, co-culture with TFK-1 cells): increased
- total of the fluorescence intensities of excreted Fluorescein, co-culture with TFK-1 cells compared with homo-culture ([2]; Example 3, culture time 3, 30 and 60 minutes): larger
- rate of the fluorescence intensities of Fluorescein excreted into the dish (lower side) over time (HepG2 cells [1]): decreased over time
- culture time beyond which total excreted Fluorescein fluorescence becomes almost a plateau state (HepG2 cells [1]; human, 250 vg/mL): exceeds 30 minutes
- total of the fluorescence intensities of Fluorescein excreted into the chamber and into the dish (HepG2 cells [1]; human, 1 h, 250 vg/mL): 609
- amount of Fluorescein excreted into the dish smaller in co-culture with NHDFs than in co-culture with TFK-1 cells [3]: 54%
- total of the fluorescence intensities of Fluorescein excreted into chamber and dish, co-culture with NHDFs compared with homo-culture [3]: almost the same
- Fluorescein accumulated in the bile canaliculus-like structure after co-culturing with TFK-1 cells ([4]; Example 1, Observations B and C of FIG. 5, co-culture 1 hour): decreased
- time within which reduction in the amount of Fluorescein accumulated in the bile canaliculus-like structure was confirmed ([4]; Example 5, co-culture with TFK-1 cells): ≤ 1 h
- reduction in the green fluorescence of Fluorescein ([4]; Example 5, co-culture, after 1 hour of excretion): significantly noticeable
- green fluorescence of Fluorescein ([4]; Example 5, co-culture, after 3 hours of excretion): not possible to confirm
- green fluorescence of Fluorescein ([4]; Example 5, co-culture, after 23 hours of excretion): not possible to confirm
- time needed to reduce the amount of Fluorescein accumulated in the bile canaliculus-like structure (HepG2 cells [5]; Example 5): ≥ 1 days
- reduction in the green fluorescence of Fluorescein (HepG2 cells [5]; Example 5, after 1 hour of excretion): not noticeable
- reduction in the green fluorescence of Fluorescein (HepG2 cells [5]; Example 5, after 3 hours of excretion): significantly noticeable
- green fluorescence of Fluorescein (HepG2 cells [5]; Example 5, after 23 hours of excretion): fluorescence in the bile canaliculus-like structure remained
- total of the fluorescence intensities of excreted Fluorescein, co-culture with TFK-1 cells compared with homo-culture ([6]; at any time of the culture time (3 to 180 minutes)): larger
- culture time beyond which total excreted Fluorescein fluorescence becomes almost a plateau state ([6]; co-culture with TFK-1 cells): exceeds 60 minutes
- rate of the fluorescence intensities of Fluorescein excreted into the dish (lower side) over time ([6]; co-culture with TFK-1 cells): increased
- amount of Fluorescein excreted into the dish (lower side) larger in co-culture with TFK-1 cells than in homo-culture (rate of excretion to the lower side) ([6]; culture time 180 minutes): 36%
